Results from ChEMBL document CHEMBL5365474, “Discovery of a First-in-Class CD38 Inhibitor for the Treatment of Mitochondrial Myopathy” (J Med Chem, 2023).
Converted amounts (≈) assume the structure as drawn.

Test: physchem
Conditions: PBS, pH 7.4

With `O=C(Nc1cccnc1)c1cc(C(F)(F)F)nc(-n2ccnc2)n1` the solubility at 2 h was 48 µM (≈ 16 µg/mL).
